What was measured:
Matrilysin = target: T1, Matrilysin (Homo sapiens, UniProt P09237); assay: In vitro inhibition of matrilysin (Matrix metalloprotease-7, MMP-7)
T1 sequence (P09237 whole entry): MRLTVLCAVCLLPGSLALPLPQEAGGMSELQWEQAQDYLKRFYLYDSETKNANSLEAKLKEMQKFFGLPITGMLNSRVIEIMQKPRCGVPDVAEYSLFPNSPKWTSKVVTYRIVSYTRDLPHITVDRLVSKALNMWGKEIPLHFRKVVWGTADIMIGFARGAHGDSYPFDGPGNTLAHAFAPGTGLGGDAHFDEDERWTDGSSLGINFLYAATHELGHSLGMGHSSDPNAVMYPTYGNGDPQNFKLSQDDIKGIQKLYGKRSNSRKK

Stromelysin-1 = Stromelysin-1 (Homo sapiens, UniProt P08254); assay: In vitro inhibition activity of human recombinant stromelysin (Matrix metalloprotease-3)
Interstitial collagenase = target: T2, Interstitial collagenase (Homo sapiens, UniProt P03956); assay: In vitro inhibition of human recombinant collagenase-1 (Matrix metalloprotease-1, MMP-1)
T2 sequence (P03956 whole entry): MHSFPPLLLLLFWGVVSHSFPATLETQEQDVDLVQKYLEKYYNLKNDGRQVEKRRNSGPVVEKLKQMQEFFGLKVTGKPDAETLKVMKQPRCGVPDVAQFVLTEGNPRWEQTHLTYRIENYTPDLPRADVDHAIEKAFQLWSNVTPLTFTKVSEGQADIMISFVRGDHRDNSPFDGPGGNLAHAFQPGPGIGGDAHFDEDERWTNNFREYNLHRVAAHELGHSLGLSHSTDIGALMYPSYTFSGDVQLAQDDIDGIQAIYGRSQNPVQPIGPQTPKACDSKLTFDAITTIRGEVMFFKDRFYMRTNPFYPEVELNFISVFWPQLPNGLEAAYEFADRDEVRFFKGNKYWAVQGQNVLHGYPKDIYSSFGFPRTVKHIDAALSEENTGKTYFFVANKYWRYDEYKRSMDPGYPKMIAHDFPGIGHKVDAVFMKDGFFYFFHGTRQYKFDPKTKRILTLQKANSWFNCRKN

Rattus norvegicus [1] = species: Rattus norvegicus; assay: In vitro percent permeability into rat ileum; Range is 28-36; assay type: ADME; conditions: in vivo
Collagenase 3 = Collagenase 3 (Homo sapiens, UniProt P45452); assay: In vitro inhibition of human recombinant collagenase-3 (Matrix metalloprotease-13)
[2] = target: 72 kDa type IV collagenase (Homo sapiens, UniProt P08253)
Description: In vitro inhibitory activity against gelatinase-A (matrix metalloprotease-2).

Rattus norvegicus [3] = species: Rattus norvegicus; assay: In vitro percent permeability into rat ileum; nd indicates not detected; assay type: ADME; conditions: in vivo
Rattus norvegicus [4] = species: Rattus norvegicus; assay: In vitro percent permeability into rat ileum; Range is 2-5; assay type: ADME; conditions: in vivo
Rattus norvegicus [5] = species: Rattus norvegicus; assay: In vitro percent permeability into rat ileum; Range is 15-18; assay type: ADME; conditions: in vivo
Rattus norvegicus [6] = species: Rattus norvegicus; assay: In vitro percent permeability into rat ileum; assay type: ADME; conditions: in vivo
Rattus norvegicus [7] = species: Rattus norvegicus; assay: In vitro percent permeability into rat ileum; Range is 50-68; assay type: ADME; conditions: in vivo
Rattus norvegicus [8] = species: Rattus norvegicus; assay: In vitro percent permeability into rat ileum; Range is 29-35; assay type: ADME; conditions: in vivo
Rattus norvegicus [9] = species: Rattus norvegicus; assay: In vitro percent permeability into rat ileum; nt indicates not detected; assay type: ADME; conditions: in vivo
Rattus norvegicus [10] = species: Rattus norvegicus; assay: In vitro percent permeability into rat ileum; Range is 10-19; assay type: ADME; conditions: in vivo
Rattus norvegicus [11] = species: Rattus norvegicus; assay: In vitro percent permeability into rat ileum; Range is 46-66; assay type: ADME; conditions: in vivo
Rattus norvegicus [12] = species: Rattus norvegicus; assay: In vitro percent permeability into rat ileum; Range is 12-15; assay type: ADME; conditions: in vivo
Rattus norvegicus [13] = species: Rattus norvegicus; assay: In vitro percent permeability into rat ileum; Range is 13-19; assay type: ADME; conditions: in vivo
Rattus norvegicus [14] = species: Rattus norvegicus; assay: In vitro percent permeability into rat ileum; insol indicates not soluble in aqueous buffer; assay type: ADME
[15] = In vitro percent permeability into rat ileum; Range is 23-42; assay type: ADME, tissue-based
Rattus norvegicus [16] = species: Rattus norvegicus; assay: In vitro percent permeability into rat ileum; Range is 78-81; assay type: ADME; conditions: in vivo
Rattus norvegicus [17] = species: Rattus norvegicus; assay: In vitro percent permeability into rat ileum; Range is 14-17; assay type: ADME; conditions: in vivo
Rattus norvegicus [18] = species: Rattus norvegicus; assay: In vitro percent permeability into rat ileum; Range is 10-17; assay type: ADME; conditions: in vivo

Chain of 72 kDa type IV collagenase (P08253 whole entry): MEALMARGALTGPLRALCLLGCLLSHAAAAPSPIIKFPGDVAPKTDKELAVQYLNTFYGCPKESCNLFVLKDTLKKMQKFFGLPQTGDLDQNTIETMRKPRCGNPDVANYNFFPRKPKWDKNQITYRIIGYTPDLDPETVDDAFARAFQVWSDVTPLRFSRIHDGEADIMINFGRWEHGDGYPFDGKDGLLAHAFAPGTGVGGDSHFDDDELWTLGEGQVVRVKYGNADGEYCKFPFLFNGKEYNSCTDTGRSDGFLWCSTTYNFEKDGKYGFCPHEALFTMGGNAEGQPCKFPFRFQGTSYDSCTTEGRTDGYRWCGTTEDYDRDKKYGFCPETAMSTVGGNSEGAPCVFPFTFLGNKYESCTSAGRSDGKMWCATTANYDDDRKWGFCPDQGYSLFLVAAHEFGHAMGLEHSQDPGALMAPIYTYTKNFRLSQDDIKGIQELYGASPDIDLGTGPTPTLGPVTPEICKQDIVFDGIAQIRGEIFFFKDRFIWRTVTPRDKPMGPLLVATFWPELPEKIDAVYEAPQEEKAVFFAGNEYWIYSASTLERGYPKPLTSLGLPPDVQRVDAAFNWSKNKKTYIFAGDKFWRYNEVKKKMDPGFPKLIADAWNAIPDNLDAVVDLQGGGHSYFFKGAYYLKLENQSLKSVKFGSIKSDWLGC
Chain of Stromelysin-1 (P08254 whole entry): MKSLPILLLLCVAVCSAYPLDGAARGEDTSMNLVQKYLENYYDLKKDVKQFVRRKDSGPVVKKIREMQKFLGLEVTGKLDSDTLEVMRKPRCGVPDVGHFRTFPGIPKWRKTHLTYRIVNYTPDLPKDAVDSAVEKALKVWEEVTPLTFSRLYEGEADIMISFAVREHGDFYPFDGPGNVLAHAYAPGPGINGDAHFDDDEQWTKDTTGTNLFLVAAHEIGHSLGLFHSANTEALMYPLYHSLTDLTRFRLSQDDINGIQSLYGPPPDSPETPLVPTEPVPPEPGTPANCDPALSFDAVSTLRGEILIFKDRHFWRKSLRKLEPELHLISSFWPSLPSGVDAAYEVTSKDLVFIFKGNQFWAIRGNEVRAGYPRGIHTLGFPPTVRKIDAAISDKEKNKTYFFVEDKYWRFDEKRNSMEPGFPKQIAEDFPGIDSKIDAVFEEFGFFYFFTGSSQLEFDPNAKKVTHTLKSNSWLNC

Row | SMILES | IC50 (Matrilysin) | IC50 (Stromelysin-1) | IC50 (Interstitial collagenase) | IC50 (Collagenase 3) | IC50 [2] | other results
1 | CCCCOc1ccc(S(=O)(=O)N2C/C(=N\OC)C[C@@H]2C(=O)NO)cc1 | 89 nM | 1 nM | 26 nM | 0.3 nM | < 1 nM | Absorption (Rattus norvegicus [1]): 36%
2 | O=C(NO)[C@H]1C/C(=N/Oc2ccccc2)CN1S(=O)(=O)c1ccc(Oc2ccncc2)cc1 | 785 nM | 5 nM | 32 nM | 0.4 nM | – | Absorption (Rattus norvegicus [3]): None detected
3 | CCCCOc1ccc(S(=O)(=O)N2C/C(=N\O)C[C@@H]2C(=O)NO)cc1 | 307 nM | 5 nM | 119 nM | 0.3 nM | 0.2 nM | Absorption (Rattus norvegicus [4]): 5%
4 | CO/N=C1/C[C@H](C(=O)NO)N(S(=O)(=O)c2ccc(Oc3ccccc3)cc2)C1 | 60 nM | 2 nM | 3 nM | < 0.4 nM | < 0.4 nM | Absorption (Rattus norvegicus [5]): 18%
5 | CCCCOc1ccc(S(=O)(=O)N2C/C(=N\N3CCOCC3)C[C@@H]2C(=O)NO)cc1 | 196 nM | 2 nM | 293 nM | < 1 nM | – | Absorption (Rattus norvegicus [6]): 1%
6 | CO/N=C1/C[C@H](C(=O)NO)N(S(=O)(=O)c2ccc(Oc3ccncc3)cc2)C1 | 922 nM | 5 nM | – | < 0.2 nM | 0.3 nM | Absorption (Rattus norvegicus [7]): 68%
7 | COc1ccc(S(=O)(=O)N2C/C(=N\O)C[C@@H]2C(=O)NO)cc1 | – | 5 nM | 17 nM | 0.2 nM | 0.2 nM | Absorption (Rattus norvegicus [8]): 35%
8 | C=C1C[C@H](C(=O)NO)N(S(=O)(=O)c2ccc(OCCC)cc2)C1 | 2550 nM | 16 nM | 155 nM | 1 nM | 2 nM | –
9 | C=C1C[C@H](C(=O)NO)N(S(=O)(=O)c2ccc(OCCCC)cc2)C1 | 1080 nM | 15 nM | 329 nM | 0.7 nM | 0.8 nM | –
10 | CCCCOc1ccc(S(=O)(=O)N2C/C(=N\OC(C)(C)C)C[C@@H]2C(=O)NO)cc1 | 294 nM | 11 nM | 74 nM | 0.4 nM | 0.5 nM | Absorption (Rattus norvegicus [9]): None detected
11 | CONC1C[C@H](C(=O)NO)N(S(=O)(=O)c2ccc(Oc3ccccc3)cc2)C1 (some centres undefined) | 1790 nM | 6 nM | 86 nM | < 0.4 nM | < 0.4 nM | –
12 | CCCCOc1ccc(S(=O)(=O)N2C/C(=N\N3CCNCC3)C[C@@H]2C(=O)NO)cc1 | 343 nM | 3 nM | 184 nM | < 1 nM | – | Absorption (Rattus norvegicus [10]): 19%
13 | C=C1C[C@H](C(=O)NO)N(S(=O)(=O)c2ccc(OC)cc2)C1 | 12300 nM | – | 90 nM | 4 nM | – | Absorption (Rattus norvegicus [11]): 66%
14 | CCCOc1ccc(S(=O)(=O)N2C/C(=N\OC)C[C@@H]2C(=O)NO)cc1 | 381 nM | 2 nM | 13 nM | < 1 nM | < 0.4 nM | –
15 | CONC1C[C@H](C(=O)NO)N(S(=O)(=O)c2ccc(OC)cc2)C1 (some centres undefined) | 3390 nM | 19 nM | 212 nM | 3 nM | 5 nM | Absorption (Rattus norvegicus [12]): 15%
16 | COc1ccc(S(=O)(=O)N2C/C(=N\OC(C)(C)C)C[C@@H]2C(=O)NO)cc1 | 263 nM | 9 nM | 20 nM | < 0.5 nM | 0.7 nM | Absorption (Rattus norvegicus [13]): 19%
17 | CC(C)(C)O/N=C1/C[C@H](C(=O)NO)N(S(=O)(=O)c2ccc(Oc3ccc(F)cc3)cc2)C1 | 1030 nM | < 1 nM | 24 nM | 0.2 nM | < 0.4 nM | Absorption (Rattus norvegicus [14]): Insoluble
18 | CCOc1ccc(S(=O)(=O)N2C/C(=N\OC)C[C@@H]2C(=O)NO)cc1 | 1060 nM | 16 nM | 22 nM | 0.7 nM | 0.3 nM | Absorption [15]: 42%
19 | COc1ccc(S(=O)(=O)N2CC(NOC(C)(C)C)C[C@@H]2C(=O)NO)cc1 (some centres undefined) | 5230 nM | 20 nM | 255 nM | 3 nM | 4 nM | –
20 | C=C1C[C@H](C(=O)NO)N(S(=O)(=O)c2ccc(Oc3ccccc3)cc2)C1 | 53 nM | 14 nM | 15 nM | < 0.4 nM | 0.4 nM | –
21 | CO/N=C1/C[C@H](C(=O)NO)N(S(=O)(=O)c2ccc(OC)cc2)C1 | 82 nM | 3 nM | 10 nM | < 0.5 nM | < 1 nM | Absorption (Rattus norvegicus [16]): 81%
22 | COCCOc1ccc(S(=O)(=O)N2C/C(=N\OC)C[C@@H]2C(=O)NO)cc1 | 612 nM | 15 nM | 109 nM | < 0.4 nM | 0.5 nM | –
23 | CC(C)(C)O/N=C1/C[C@H](C(=O)NO)N(S(=O)(=O)c2ccc(Oc3ccncc3)cc2)C1 | 785 nM | 5 nM | 26 nM | < 0.4 nM | < 0.4 nM | –
24 | COCCOc1ccc(S(=O)(=O)N2CC(NOC)C[C@@H]2C(=O)NO)cc1 (some centres undefined) | 6720 nM | 222 nM | – | 8 nM | 11 nM | –
25 | CCCCOc1ccc(S(=O)(=O)N2C/C(=N\OCC(C)C)C[C@@H]2C(=O)NO)cc1 | 420 nM | 12 nM | 75 nM | < 0.1 nM | < 0.4 nM | –
26 | CCCCOc1ccc(S(=O)(=O)N2CC(NOC)C[C@@H]2C(=O)NO)cc1 (some centres undefined) | 2080 nM | 21 nM | 790 nM | 2 nM | 1 nM | Absorption (Rattus norvegicus [17]): 17%
27 | C=C1C[C@H](C(=O)NO)N(S(=O)(=O)c2ccc(OCCOC)cc2)C1 | > 9990 nM | 69 nM | 1550 nM | 11 nM | 9 nM | –
28 | CO/N=C1/C[C@H](C(=O)NO)N(S(=O)(=O)c2ccc(Oc3ccc(F)cc3)cc2)C1 | < 24 nM | < 1 nM | 3 nM | 0.8 nM | < 0.4 nM | –
29 | CCCCOc1ccc(S(=O)(=O)N2C/C(=N\OCc3ccccc3)C[C@@H]2C(=O)NO)cc1 | 490 nM | 17 nM | 127 nM | 0.1 nM | < 0.4 nM | –
30 | CCCCOc1ccc(S(=O)(=O)N2C/C(=N\OCC)C[C@@H]2C(=O)NO)cc1 | 39 nM | 2 nM | 39 nM | 0.5 nM | < 0.4 nM | Absorption (Rattus norvegicus [18]): 17%

— ChEMBL document CHEMBL1132553, “Design, synthesis, and biological evaluation of matrix metalloproteinase inhibitors derived from a modified proline scaffold” (J Med Chem, 1999)
